In brackets after ≈: the same amount, converted by molar mass.
What was measured:
[1] = Hepatic microsomal stability, HLM; assay type: in vitro ADME, human; conditions: In vitro human liver microsomal stability; for perc_remaining_no_cofactor: no cofactor
[2] = Hepatic microsomal stability, MLM; assay type: in vitro ADME
[3] = LogD; conditions: pH 7.4; In vitro LogD
[4] = In vitro kinetic solubility; conditions: In vitro kinetic solubility, ph 7.4
[5] = Permeability Papp (AB) MDR1/MDCKII; conditions: In vitro MDR1-MDCKII permeability; for papp_a_to_b_mean: A to B; for perc_recovery_a_to_b_mean: recovery A to B
[6] = In vitro mouse liver microsomal stability
[7] = In vitro mouse liver microsomal stability, no cofactor
[8] = In vitro mouse liver microsomal stability; no cofactor

CC(C)(C)[C@H](Nc1ncnc2[nH]c(-c3cnn(CC(N)=O)c3)cc12)c1ccc2c(c1)OCCO2 (single isomer, unassigned) [ASAP-0012332]
clint [1]: 100.0 µL/min/mg | perc_remaining [1]: 18.0% | t_half [1]: 16.8 min | perc_remaining_no_cofactor [1]: 109.0% | clint [2, 6]: 39.0 µL/min/mg | perc_remaining [2, 6]: 54.0% | t_half [2, 6]: 43.1 min | perc_remaining_no_cofactor [2, 7]: 106.0% | logd [3]: 3.1 | solubility_mean [4]: 104 µM (≈ 48 µg/mL) | papp_a_to_b_mean ([5]; no inhibitor): 1.01 ×10⁻⁶ cm/s | perc_recovery_a_to_b_mean ([5]; no inhibitor): 76.5%

CNC(=O)c1cc2c(N[C@H](c3ccc4c(c3)S(=O)(=O)CCC4)C(C)C)ncnc2[nH]1 (single isomer, unassigned) [ASAP-0012340]
clint [1]: 67.0 µL/min/mg | perc_remaining [1]: 33.0% | t_half [1]: 25.0 min | perc_remaining_no_cofactor [1]: 107.0% | clint [2, 6]: 47.0 µL/min/mg | perc_remaining [2, 6]: 42.0% | t_half [2, 6]: 35.3 min | perc_remaining_no_cofactor [2, 7]: 106.0% | logd [3]: 2.3 | solubility_mean [4]: 374 µM (≈ 160 µg/mL) | papp_a_to_b_mean ([5]; no inhibitor): 0.891 ×10⁻⁶ cm/s | perc_recovery_a_to_b_mean ([5]; no inhibitor): 74.2%

CNCc1cc(-c2cc3c(N[C@@H](c4ccc5c(c4)S(=O)(=O)CCC5)C(C)C)ncnc3[nH]2)co1 [ASAP-0010745]
clint [1]: 57.0 µL/min/mg | perc_remaining [1]: 40.0% | t_half [1]: 29.4 min | perc_remaining_no_cofactor [1]: 110.0% | clint [2, 6]: 52.0 µL/min/mg | perc_remaining [2, 6]: 41.0% | t_half [2, 6]: 32.2 min | perc_remaining_no_cofactor [2, 8]: 108.0% | logd [3]: 2.1 | solubility_mean [4]: 321 µM (≈ 154 µg/mL) | papp_a_to_b_mean ([5]; mean): 1.61 ×10⁻⁶ cm/s | perc_recovery_a_to_b_mean ([5]; mean): 90.5%

CC(C)[C@H](Nc1ncnc2[nH]c(-c3cnn(C)c3C#N)cc12)c1ccc2c(c1)NC(=O)CO2 (single isomer, unassigned) [ASAP-0013256]
clint [1]: 52.0 µL/min/mg | perc_remaining [1]: 44.0% | t_half [1]: 32.3 min | perc_remaining_no_cofactor [1]: 109.0% | clint [2, 6]: 147.0 µL/min/mg | perc_remaining [2, 6]: 10.0% | t_half [2, 6]: 11.3 min | perc_remaining_no_cofactor [2, 7]: 102.0% | logd [3]: 3.4 | solubility_mean [4]: 19 µM (≈ 8.41 µg/mL) | papp_a_to_b_mean ([5]; no inhibitor): 2.35 ×10⁻⁶ cm/s | perc_recovery_a_to_b_mean ([5]; no inhibitor): 78.9%

CC(C)(C)[C@H](Nc1ncnc2[nH]c(-c3cnn(CC(N)=O)c3)cc12)c1ccc2c(c1)OCCO2 (racemic) [ASAP-0008581]
clint [1]: 133.0 µL/min/mg | perc_remaining [1]: 11.0% | t_half [1]: 12.6 min | perc_remaining_no_cofactor [1]: 87.0% | clint [2, 6]: 47.0 µL/min/mg | perc_remaining [2, 6]: 46.0% | t_half [2, 6]: 35.2 min | perc_remaining_no_cofactor [2, 7]: 107.0% | logd [3]: 3.2 | solubility_mean [4]: 195 µM (≈ 90 µg/mL) | papp_a_to_b_mean ([5]; mean): 1.66 ×10⁻⁶ cm/s | perc_recovery_a_to_b_mean ([5]; mean): 94.7%

COc1ccc([C@H](CC(=O)O)NC(=O)c2ncnc3[nH]ccc23)cc1 (racemic) [ASAP-0000591]
clint [1]: 7.0 µL/min/mg | perc_remaining [1]: 87.0% | t_half [1]: 240.4 min | perc_remaining_no_cofactor [1]: 88.0% | clint [2, 6]: 2.0 µL/min/mg | perc_remaining [2, 6]: 94.0% | t_half [2, 6]: 686.4 min | perc_remaining_no_cofactor [2, 8]: 96.0% | logd [3]: -0.38 | solubility_mean [4]: ≥ 400 µM | papp_a_to_b_mean ([5]; mean): 1.7 ×10⁻⁶ cm/s | perc_recovery_a_to_b_mean ([5]; mean): 90.0%

CC(C)[C@H](Nc1ncnc2[nH]ccc12)c1ccc2c(c1)NC(=O)CO2 [ASAP-0008430]
clint [1]: 10.0 µL/min/mg | perc_remaining [1]: 86.0% | t_half [1]: 160.3 min | perc_remaining_no_cofactor [1]: 95.0% | clint [2, 6]: 37.0 µL/min/mg | perc_remaining [2, 6]: 54.0% | t_half [2, 6]: 45.1 min | perc_remaining_no_cofactor [2, 8]: 89.0% | logd [3]: 1.8 | solubility_mean [4]: 371 µM (≈ 125 µg/mL) | papp_a_to_b_mean ([5]; mean): 3.4 ×10⁻⁶ cm/s | perc_recovery_a_to_b_mean ([5]; mean): 90.0%

CC(C)[C@H](Nc1ncnc2[nH]c(-c3cnn(CC(N)=O)c3)cc12)c1ccc2c(c1)NC(=O)CO2 (racemic) [ASAP-0008621]
clint [1]: 17.0 µL/min/mg | perc_remaining [1]: 73.0% | t_half [1]: 99.2 min | perc_remaining_no_cofactor [1]: 91.0% | clint [2, 6]: 11.0 µL/min/mg | perc_remaining [2, 6]: 84.0% | t_half [2, 6]: 155.8 min | perc_remaining_no_cofactor [2, 7]: 102.0% | logd [3]: 2.5 | solubility_mean [4]: 25 µM (≈ 11.5 µg/mL) | papp_a_to_b_mean ([5]; mean): 1.36 ×10⁻⁶ cm/s | perc_recovery_a_to_b_mean ([5]; mean): 98.0%

CC(C(=O)O)C(NC(=O)c1ncnc2[nH]ccc12)c1ccc(Br)cc1 (mixture of isomers) [ASAP-0008445]
clint [1]: 5.0 µL/min/mg | perc_remaining [1]: 103.0% | t_half [1]: 338.5 min | perc_remaining_no_cofactor [1]: 110.0% | clint [2, 6]: 4.0 µL/min/mg | perc_remaining [2, 6]: 94.0% | t_half [2, 6]: 433.2 min | perc_remaining_no_cofactor [2, 7]: 109.0% | logd [3]: 0.5 | solubility_mean [4]: 386 µM | papp_a_to_b_mean ([5]; mean): 1.4 ×10⁻⁶ cm/s | perc_recovery_a_to_b_mean ([5]; mean): 93.4%

CC(C)[C@H](CO)Nc1ncnc2[nH]ccc12 [ASAP-0000453]
clint [1]: 6.0 µL/min/mg | perc_remaining [1]: 119.0% | t_half [1]: 289.0 min | perc_remaining_no_cofactor [1]: 99.0% | clint [2, 6]: 10.0 µL/min/mg | perc_remaining [2, 6]: 90.0% | t_half [2, 6]: 171.1 min | perc_remaining_no_cofactor [2, 8]: 93.0% | logd [3]: 1.69 | solubility_mean [4]: ≥ 400 µM | papp_a_to_b_mean ([5]; mean): 13.1 ×10⁻⁶ cm/s | perc_recovery_a_to_b_mean ([5]; mean): 89.0%

CC(C)(C)[C@H](Nc1ncnc2[nH]c(-c3cnn(CC(N)=O)c3)cc12)c1ccc2c(n1)OCCO2 (racemic) [ASAP-0008648]
clint [1]: 36.0 µL/min/mg | perc_remaining [1]: 55.0% | t_half [1]: 46.0 min | perc_remaining_no_cofactor [1]: 96.0% | clint [2, 6]: 31.0 µL/min/mg | perc_remaining [2, 6]: 60.0% | t_half [2, 6]: 53.1 min | perc_remaining_no_cofactor [2, 7]: 90.0% | logd [3]: 2.7 | solubility_mean [4]: 48 µM (≈ 22.2 µg/mL) | papp_a_to_b_mean ([5]; mean): 0.822 ×10⁻⁶ cm/s | perc_recovery_a_to_b_mean ([5]; mean): 88.8%

CC(C)[C@H](Nc1ncnc2[nH]c(-c3cnn(CC(=O)N(C)C)c3)cc12)c1ccc2c(c1)OCCO2 (single isomer, unassigned) [ASAP-0013837]
clint [1]: 108.0 µL/min/mg | perc_remaining [1]: 18.0% | t_half [1]: 15.4 min | perc_remaining_no_cofactor [1]: 114.0% | clint [2, 6]: 45.0 µL/min/mg | perc_remaining [2, 6]: 48.0% | t_half [2, 6]: 36.8 min | perc_remaining_no_cofactor [2, 7]: 114.0% | logd [3]: 3.0 | solubility_mean [4]: 205 µM (≈ 97.5 µg/mL) | papp_a_to_b_mean ([5]; no inhibitor): 1.62 ×10⁻⁶ cm/s | perc_recovery_a_to_b_mean ([5]; no inhibitor): 87.9%

CNC(=O)c1c[nH]c2ncnc(N[C@@H](c3ccc4c(c3)S(=O)(=O)CCC4)C(C)C)c12 [ASAP-0011156]
clint [1]: 108.0 µL/min/mg | perc_remaining [1]: 17.0% | t_half [1]: 15.4 min | perc_remaining_no_cofactor [1]: 94.0% | clint [2, 6]: 113.0 µL/min/mg | perc_remaining [2, 6]: 15.0% | t_half [2, 6]: 14.7 min | perc_remaining_no_cofactor [2, 7]: 108.0% | logd [3]: 2.6 | solubility_mean [4]: 204 µM (≈ 87.2 µg/mL) | papp_a_to_b_mean ([5]; no inhibitor): 0.857 ×10⁻⁶ cm/s | perc_recovery_a_to_b_mean ([5]; no inhibitor): 78.7%

CC(C)[C@H](Nc1ncnc2[nH]c(-c3cnn(C)c3C#N)cc12)c1ccc2c(c1)NC(=O)CO2 (racemic) [ASAP-0008576]
clint [1]: 100.0 µL/min/mg | perc_remaining [1]: 18.0% | t_half [1]: 16.6 min | perc_remaining_no_cofactor [1]: 93.0% | clint [2, 6]: 177.0 µL/min/mg | perc_remaining [2, 6]: 6.0% | t_half [2, 6]: 9.4 min | perc_remaining_no_cofactor [2, 7]: 97.0% | logd [3]: 4.1 | solubility_mean [4]: 69 µM (≈ 30.5 µg/mL) | papp_a_to_b_mean ([5]; mean): 3.07 ×10⁻⁶ cm/s | perc_recovery_a_to_b_mean ([5]; mean): 80.1%

CC(C)[C@H](Nc1ncnc2[nH]c(-c3cnn(CC(N)=O)c3)cc12)c1ccc2c(n1)OCCO2 [ASAP-0012307]
clint [1]: 12.0 µL/min/mg | perc_remaining [1]: 85.0% | t_half [1]: 134.5 min | perc_remaining_no_cofactor [1]: 90.0% | clint [2, 6]: 5.0 µL/min/mg | perc_remaining [2, 6]: 99.0% | t_half [2, 6]: 359.1 min | perc_remaining_no_cofactor [2, 7]: 110.0% | logd [3]: 2.3 | solubility_mean [4]: 377 µM (≈ 169 µg/mL) | papp_a_to_b_mean ([5]; no inhibitor): 1.27 ×10⁻⁶ cm/s | perc_recovery_a_to_b_mean ([5]; no inhibitor): 100.0%

COc1ccc2c(c1)CCN(c1ncnc3[nH]ccc13)[C@H]2C(C)C (racemic) [ASAP-0000502]
clint [1]: 60.0 µL/min/mg | perc_remaining [1]: 38.0% | t_half [1]: 27.8 min | perc_remaining_no_cofactor [1]: 103.0% | clint [2, 6]: 321.0 µL/min/mg | perc_remaining [2, 6]: 1.0% | t_half [2, 6]: 5.2 min | perc_remaining_no_cofactor [2, 8]: 83.0% | logd [3]: 4.33 | solubility_mean [4]: 14 µM (≈ 4.51 µg/mL) | papp_a_to_b_mean ([5]; mean): 7.0 ×10⁻⁶ cm/s | perc_recovery_a_to_b_mean ([5]; mean): 32.0%

CC(C)[C@H](Nc1ncnc2[nH]c(-c3cnn(CC(=O)N(C)C)c3)cc12)c1ccc2c(c1)OCCO2 (single isomer, unassigned) [ASAP-0013833]
clint [1]: 500.0 µL/min/mg | perc_remaining [1]: 0.0% | t_half [1]: 3.3 min | perc_remaining_no_cofactor [1]: 115.0% | clint [2, 6]: 35.0 µL/min/mg | perc_remaining [2, 6]: 54.0% | t_half [2, 6]: 48.1 min | perc_remaining_no_cofactor [2, 7]: 102.0% | logd [3]: 2.9 | solubility_mean [4]: 19 µM (≈ 9.04 µg/mL) | papp_a_to_b_mean ([5]; no inhibitor): 2.05 ×10⁻⁶ cm/s | perc_recovery_a_to_b_mean ([5]; no inhibitor): 82.0%
